Source: patent US11578056B2, “Solid forms comprising (S)-2-(2,6-dioxopiperidin-3-yl)-4-((2-fluoro-4-((3-morpholinoazetidin-1-yl)methyl)benzyl)amino)isoindoline-1,3-dione and salts thereof, and compositions comprising and methods of using the same” (Celgene Corporation, priority 2019, dated 2023)

Assays:
Experiment in all cases: Hematological cell line viability/apoptosis flow cytometry assay
Assay type in all cases: cell-based
L-428 cell line = settings: L-428 (HL), 120 h
In short: (§1)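 384-well format; serial dilutions 0.00015–10 μM, DMSO 0.1% v/v, 5 days. Annexin V/DRAQ7 flow readout. Viability normalized to DMSO → IC50, Emax, AUC; apoptosis (early + late) vs DMSO → EC50, Ymax, AUC.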

TMD8 cell line = settings: TMD8 (DLBCL ABC); 120 h
In short: as §1

L-591 cell line = settings: L-591 (HL), 120 h
In short: as §1

SU-DHL-4 cell line = settings: SU-DHL-4 (DLBCL GCB); 120 h
In short: as §1

I83-E95 cell line = settings: I83-E95 (CLL), 120 h
In short: as §1

OCI-LY1 cell line = settings: OCI-LY1 (DLBCL GCB); 120 h
In short: as §1

NCI-H929 cell line = settings: NCI-H929 (MM), 120 h
In short: as §1

RIVA cell line = settings: RIVA (DLBCL ABC), 120 h
In short: as §1

SU-DHL-16 cell line = settings: SU-DHL-16 (DLBCL GCB); 120 h
In short: as §1

SU-DHL-2 cell line = settings: SU-DHL-2 (DLBCL ABC); 120 h
In short: as §1

HuT-102 cell line = settings: HuT-102 (TCL), 120 h
In short: as §1

SU-DHL-5 cell line = settings: SU-DHL-5 (DLBCL); 120 h
In short: as §1

MDS-L cell line = settings: 120 h
In short: as §1

[1] = Homo sapiens, read-out: % Viable Cells IC50

Compound: O=C1CC[C@H](N2C(=O)c3cccc(NCc4ccc(CN5CC(N6CCOCC6)C5)cc4F)c3C2=O)C(=O)N1 [Compound 1, (S)-2-(2,6-dioxopiperidin-3-yl)-4-((2-fluoro-4-((3-morpholinoazetidin-1-yl)methyl)benzyl)amino)isoindoline-1,3-dione]
- EC50 (L-428 cell line; Homo sapiens): 64500 nM
- IC50 (L-428 cell line; [1]): 252 nM
- % Viable Cells AUC (L-428 cell line): 450.4
- % Viable Cells Emax (L-428 cell line): 47.3%
- Apoptosis AUC (L-428 cell line): 63.35
- Apoptosis Ymax (L-428 cell line): 27.50%
- % Viable Cells AUC (TMD8 cell line): 4.187
- % Viable Cells Emax (TMD8 cell line): 0.245%
- Apoptosis AUC (TMD8 cell line): 963.3
- Apoptosis Ymax (TMD8 cell line): 97.2%
- % Viable Cells AUC (L-591 cell line): 334.2
- % Viable Cells Emax (L-591 cell line): 34.6%
- Apoptosis AUC (L-591 cell line): 45.59
- Apoptosis Ymax (L-591 cell line): 20.0%
- EC50 (L-591 cell line): 1520 nM
- IC50 (L-591 cell line; read-out: % Viable Cells IC50): 0.3 nM
- % Viable Cells AUC (SU-DHL-4 cell line): 296.2
- % Viable Cells Emax (SU-DHL-4 cell line): 23.44%
- Apoptosis AUC (SU-DHL-4 cell line): 209
- Apoptosis Ymax (SU-DHL-4 cell line): 25.33%
- % Viable Cells AUC (I83-E95 cell line): 259.2
- % Viable Cells Emax (I83-E95 cell line): 21.6%
- Apoptosis AUC (I83-E95 cell line): 358.4
- Apoptosis Ymax (I83-E95 cell line): 40.69%
- EC50 (I83-E95 cell line): 61.1 nM
- IC50 (I83-E95 cell line; read-out: % Viable Cells IC50): 17.3 nM
- % Viable Cells AUC (OCI-LY1 cell line): 22.77
- % Viable Cells Emax (OCI-LY1 cell line): 1.037%
- Apoptosis AUC (OCI-LY1 cell line): 852.3
- Apoptosis Ymax (OCI-LY1 cell line): 90.09%
- EC50 (NCI-H929 cell line; Homo sapiens): 11300 nM
- IC50 (NCI-H929 cell line; [1]): 0.7 nM
- % Viable Cells AUC (NCI-H929 cell line): 215.5
- % Viable Cells Emax (NCI-H929 cell line): 6.1%
- Apoptosis AUC (NCI-H929 cell line): 16.86
- Apoptosis Ymax (NCI-H929 cell line): 7.00%
- % Viable Cells AUC (RIVA cell line): 452.6
- % Viable Cells Emax (RIVA cell line): 36.65%
- Apoptosis AUC (RIVA cell line): 242.8
- Apoptosis Ymax (RIVA cell line): 27.92%
- EC50 (RIVA cell line): 17.7 nM
- IC50 (RIVA cell line; read-out: % Viable Cells IC50): 114 nM
- % Viable Cells AUC (SU-DHL-16 cell line): 149.7
- % Viable Cells Emax (SU-DHL-16 cell line): 7.137%
- Apoptosis AUC (SU-DHL-16 cell line): 492.6
- Apoptosis Ymax (SU-DHL-16 cell line): 60.79%
- % Viable Cells AUC (SU-DHL-2 cell line): 5.586
- % Viable Cells Emax (SU-DHL-2 cell line): 0.2145%
- Apoptosis AUC (SU-DHL-2 cell line): 928.4
- Apoptosis Ymax (SU-DHL-2 cell line): 95.98%
- % Viable Cells AUC (HuT-102 cell line): 395.4
- % Viable Cells Emax (HuT-102 cell line): 36.34%
- Apoptosis AUC (HuT-102 cell line): 42.75
- Apoptosis Ymax (HuT-102 cell line): 18.50%
- EC50 (HuT-102 cell line): 23400 nM
- IC50 (HuT-102 cell line; read-out: % Viable Cells IC50): 6.5 nM
- % Viable Cells AUC (SU-DHL-5 cell line): 1.873
- % Viable Cells Emax (SU-DHL-5 cell line): 0.1398%
- Apoptosis AUC (SU-DHL-5 cell line): 934.1
- Apoptosis Ymax (SU-DHL-5 cell line): 95.23%
- % Viable Cells AUC (MDS-L cell line): 182.6
- % Viable Cells Emax (MDS-L cell line): 146.7%
- Apoptosis AUC (MDS-L cell line): 425.4
- Apoptosis Ymax (MDS-L cell line): 100%
- EC50 (MDS-L cell line): 1560 nM
- IC50 (MDS-L cell line; read-out: % Viable Cells IC50): 51.3 nM
